# Measured values reported in article PMC3956608 (PLoS ONE, 2014).
# Key:
# [1] = target: T1, acetylcholine binding protein (Ls-AChBP) (Lymnaea stagnalis, UniProt P58154); assay: radioligand binding, HEK-293 cell homogenate; parameters: Ls-AChBP linked to a 5HT3 receptor ion channel (Ls-AChBP-5HT3 receptor chimera); conditions: cited from earlier work
# [2] = target: T1, acetylcholine binding protein (Ls-AChBP); assay: biochemical
# T1 sequence (P58154 20-229): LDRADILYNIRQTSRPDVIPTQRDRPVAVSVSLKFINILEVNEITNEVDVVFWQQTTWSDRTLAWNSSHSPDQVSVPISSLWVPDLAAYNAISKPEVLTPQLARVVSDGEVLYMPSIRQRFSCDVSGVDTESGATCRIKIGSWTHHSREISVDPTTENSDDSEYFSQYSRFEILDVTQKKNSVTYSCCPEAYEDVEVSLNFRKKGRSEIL
SMILES,Kd [1],Ki [2]
Clc1ccc(C2CC3CCC2N3)cn1 (centres unmarked) [[3H]-epibatidine],0.097 nM,–
CC(=O)OCC[N+](C)(C)C [acetylcholine],–,1500 nM
